The text below walks through data of patent US12077503B2, “Substituted cyclic amides and their use as herbicides” (FMC CORPORATION, priority 2015, dated 2024).

The test system of data set [1] is ducksalad (Heteranthera limosa). The data set can be described thus: Test B flooded paddy test. It is filed as in vivo. The settings on record: Heteranthera limosa, Flood, 250 g ai/ha. In outline: (§1)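 Response scored visually against untreated controls, 0 = no effect and 100 = complete control, 13–15 d after treatment in the greenhouse. Compounds added to paddy water held 3 cm above soil surface. Treatment given at 2-leaf stage.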

For data set [2], the system named is barnyardgrass (Echinochloa crus-galli). The data set can be described thus: Test B flooded paddy test. Format: in vivo. The settings on record: Echinochloa crus-galli, Flood, 250 g ai/ha. The method in brief: as §1
Data set [3] relates to sedge, umbrella (small-flower umbrella sedge, Cyperus difformis). Nature of the data set: Test B flooded paddy test. Format: in vivo. Conditions: Cyperus difformis, Flood, 250 g ai/ha. The method in brief:
as §1

Another data set concerns rice (Oryra sativa). The data set can be described thus: Test B flooded paddy test. Format: in vivo. Conditions: Oryza sativa, Flood, 250 g ai/ha. In outline:
as §1

[4] abbreviates: scale of 0 to 100 where 0 is no effect and 100 is complete control, read-out: Ducksalad plant response rating.
Where [5] appears, read: scale of 0 to 100 where 0 is no effect and 100 is complete control, read-out: Barnyardgrass plant response rating.
[6] abbreviates: scale of 0 to 100 where 0 is no effect and 100 is complete control, read-out: Sedge, Umbrella plant response rating.
Setting [7] is: scale of 0 to 100 where 0 is no effect and 100 is complete control, read-out: Rice plant response rating.
[8] abbreviates: 0 to 100 scale where 0 is no effect and 100 is complete control, read-out: Ducksalad plant response rating.
Where [9] appears, read: 0 to 100 scale where 0 is no effect and 100 is complete control, read-out: Barnyardgrass plant response rating.
The mark [10] stands for this setting: 0 to 100 scale where 0 is no effect and 100 is complete control, read-out: Sedge, Umbrella plant response rating.
The mark [11] stands for this setting: 0 to 100 scale where 0 is no effect and 100 is complete control, read-out: Rice plant response rating.

The term melting point denotes the temperature of the solid-liquid transition.

Like-named read-outs stand apart in the source and are kept apart here.

As to `CCc1ccccc1NC(=O)[C@H]1C(=O)N(C)C[C@@H]1c1ccc(C(F)(F)F)cc1` [Compound 935], the melting point is 116 to 119 °C. Also, the pest or weed control at 250 g/ha in data set [1] (setting [4]) was 70%. Besides, the pest or weed control at 250 g/ha in data set [2] (setting [5]) amounted to 0%. Also, in data set [3] (setting [6]), the pest or weed control at 250 g/ha is 0%. Further, the pest or weed control at 250 g/ha with rice (Oryra sativa) (setting [7]) was found to be 0%.
Turning to `O=C1NCC[C@H](c2ccc(Cl)cc2)[C@H]1C(=O)Nc1cccc(F)c1F` [Compound 795], the melting point fell in the range of 86 to 89 °C. For the same compound, the pest or weed control at 250 g/ha in data set [1] (setting [4]) stood at 70%. Also, the pest or weed control at 250 g/ha in data set [2] (setting [5]) was determined as 0%. The pest or weed control at 250 g/ha in data set [3] (setting [6]) was found to be 0%. For the same compound, the pest or weed control at 250 g/ha with rice (Oryra sativa) (setting [7]) was determined as 0%.
`Cc1cc([C@H]2CN(C)C(=O)[C@@H]2C(=O)Nc2cccc(F)c2F)on1` [Compound 1196] yielded a melting point of 144 to 148 °C. The pest or weed control at 250 g/ha in data set [1] (setting [8]) came to 30%. The pest or weed control at 250 g/ha in data set [2] (setting [9]) worked out at 0%. In addition, the pest or weed control at 250 g/ha in data set [3] (setting [10]) worked out at 0%. Besides, the pest or weed control at 250 g/ha in the data set with rice (Oryra sativa) (setting [11]) was determined as 0%.
Compound `O=C1NC[C@H](c2cnc(C(F)(F)F)nc2)[C@H]1C(=O)Nc1ccccc1F` [Compound 741] showed a melting point of 227 to 231 °C. Besides, the pest or weed control at 250 g/ha in data set [1] (setting [4]) is 90%. In addition, the pest or weed control at 250 g/ha in data set [2] (setting [5]) came out at 0%. Besides, the pest or weed control at 250 g/ha in data set [3] (setting [6]) was found to be 40%. Further, the pest or weed control at 250 g/ha in the data set with rice (Oryra sativa) (setting [7]) is 0%.
On to `CN1C[C@H](c2ccc(C(F)(F)F)cc2)[C@@H](C(=O)Nc2cccc(F)c2Cl)C1=O` [Compound 938], for which the melting point fell in the range of 169 to 172 °C. In addition, in data set [1] (setting [4]), the pest or weed control at 250 g/ha came to 60%. Further, the pest or weed control at 250 g/ha in data set [2] (setting [5]) turned out to be 40%. For the same compound, the pest or weed control at 250 g/ha in data set [3] (setting [6]) came out at 0%. For the same compound, the pest or weed control at 250 g/ha in the data set on rice (Oryra sativa) (setting [7]) came to 0%.
`C/C=C/C1CNC(=O)C1C(=O)Nc1ccccc1F` (stereo not drawn) [Compound 792] displayed a melting point of 133 to 137 °C. Moreover, the pest or weed control at 250 g/ha in data set [1] (setting [4]) worked out at 0%. Besides, the pest or weed control at 250 g/ha in data set [2] (setting [5]) turned out to be 0%. Also, in data set [3] (setting [6]), the pest or weed control at 250 g/ha is 0%. For the same compound, the pest or weed control at 250 g/ha in the data set on rice (Oryra sativa) (setting [7]) amounted to 0%.
Compound `CN1CC(c2cccc(OC/C=C/Cl)c2)C(C(=O)Nc2cccc(F)c2F)C1=O` (stereo not drawn) [Compound 772] yielded a melting point of 146 to 150 °C. Also, the pest or weed control at 250 g/ha in data set [1] (setting [4]) stood at 75%. Further, the pest or weed control at 250 g/ha in data set [2] (setting [5]) was determined as 0%. Besides, the pest or weed control at 250 g/ha in data set [3] (setting [6]) came out at 0%. Further, the pest or weed control at 250 g/ha in the data set on rice (Oryra sativa) (setting [7]) worked out at 0%.
`O=C1NC[C@H](c2nccc(C(F)(F)F)n2)[C@H]1C(=O)Nc1ccccc1F` [Compound 1304] yielded a melting point of 166 to 170 °C. Further, the pest or weed control at 250 g/ha in data set [1] (setting [8]) is 0%. For the same compound, the pest or weed control at 250 g/ha in data set [2] (setting [9]) came out at 0%. In data set [3] (setting [10]), the pest or weed control at 250 g/ha was 0%. Besides, in the data set on rice (Oryra sativa) (setting [11]), the pest or weed control at 250 g/ha is 0%.
In the case of `O=C1NC[C@H](c2cncs2)[C@H]1C(=O)Nc1cccc(F)c1F` [Compound 1336], the melting point is 111 to 142 °C. Moreover, in data set [1] (360 h, visually evaluated after 13 to 15 d, read-out: Plant response rating, Ducksalad (0 to 100 scale where 0 is no effect and 100 is complete control)), the pest or weed control at 250 g/ha was 40%. The pest or weed control at 250 g/ha in data set [2] (360 h, visually evaluated after 13 to 15 d, read-out: Plant response rating, Barnyardgrass (0 to 100 scale where 0 is no effect and 100 is complete control)) was determined as 0%. Further, the pest or weed control at 250 g/ha in data set [3] (360 h, visually evaluated after 13 to 15 d, read-out: Plant response rating, Sedge, Umbrella (0 to 100 scale where 0 is no effect and 100 is complete control)) turned out to be 0%. The pest or weed control at 250 g/ha in the data set on rice (Oryra sativa) (360 h, visually evaluated after 13 to 15 d, read-out: Plant response rating, Rice (0 to 100 scale where 0 is no effect and 100 is complete control)) came out at 0%.
Compound `O=C1NC[C@H](c2cccc(C(F)(F)F)n2)[C@H]1C(=O)Nc1ccccc1F` [Compound 940] had a melting point of 164 to 167 °C. The pest or weed control at 250 g/ha in data set [1] (setting [4]) came out at 0%. Also, the pest or weed control at 250 g/ha in data set [2] (setting [5]) came to 0%. In data set [3] (setting [6]), the pest or weed control at 250 g/ha was determined as 0%. For the same compound, in the data set with rice (Oryra sativa) (setting [7]), the pest or weed control at 250 g/ha came to 0%.
`O=C1NCC(c2ccccc2)C1C(=O)Nc1cc(F)ccc1F` (stereo not drawn) [Compound 1359] had a melting point of 147 to 149 °C.
